Data on 16 compounds can be found in patent publication US7956190B2, “Benzimidazole amido derivatives as kinase inhibitors” (Hoffmann-La Roche Inc., priority 2007, dated 2011).

Molecules are shown by their SMILES. pIC50: −log10 of the molar value.

The subject of the experiment is HCT 116 cells. In words: CellTiter-Glo Assay in HCT 116 Cells. The experiment is classed as cell-based. To be noted: HCT 116 human colon carcinoma cells, 5 days (120 h) incubation, CellTiter-Glo luminescence, tested in triplicate. The source says: CellTiter-Glo™ Assay in HCT 116 Cells
The CellTiter-Glo™ Luminescent Cell Viability Assay (Promega) is a homogeneous method of determining the number of viable cells in culture based on quantitation of the ATP present, which signals the presence of metabolically active cells.
HCT 116 cells (human colon carcinoma, ATCC-No. CCl-247) were cultivated in RPMI 1640 medium with GlutaMAX™ I (Invitrogen, Cat-No. 61870-010), 5% Fetal Calf Serum (FCS, Sigma Cat-No. F4135 (FBS)); 100 Units/ml penicillin/100 μg/ml streptomycin (=Pen/Strep from Invitrogen Cat. No. 15140). For the assay the cells were seeded in 384 well plates, 1000 cells per well, in the same medium. The next day the test compounds were added in various concentrations ranging from 30 μM to 0.0015 μM (10 concentrations, 1:3 diluted). After 5 days the CellTiter-Glo™ assay was done according to the instructions of the manufacturer (CellTiter-Glo™ Luminescent Cell Viability Assay, from Promega). In brief: the cell-plate was equilibrated to room temperature for approximately 30 minutes and than the CellTiter-Glo™ reagent was added. The contents were carefully mixed for 15 minutes to induce cell lysis. After 45 minutes the luminescent signal was measured in Victor 2, (scanning multiwell spectrophotometer, Wallac).
• Medium: RPMI 1640 with GlutaMAX™ I (Invitrogen, Cat-Nr. 61870), 5% FCS (Sigma Cat.-No. F4135), Pen/Strep (Invitrogen, Cat No. 15140). • HCT116 (ATCC-No. CCl-247): 1000 cells in 60 μl per well of 384 well plate (Greiner 781098, μClear-plate white) • After seeding incubate plates 24 h at 37° C., 5% CO2 2nd. Day: Induction (Treatment with Compounds, 10 Concentrations):
In order to achieve a final concentration of 30 μM as highest concentration 3.5 μl of 10 mM compound stock solution were added directly to 163 μl media. Then step e) of the dilution procedure described below, was followed.
As a reminder, the pIC50 is the negative decadic logarithm of the IC50, by convention in mol/L. Compound `COc1cccc(C(=O)Nc2cccc3nc(-c4c(NC[C@@H](O)c5ccccc5)cc[nH]c4=O)[nH]c23)c1` [Example B-18, N-{2-[4-((S)-2-Hydroxy-2-phenyl-ethylamino)-2-oxo-1,2-dihydro-pyridin-3-yl]-3H-benzoimidazol-4-yl}-3-methoxy-benzamide] had a pIC50 of 4.82 to 6.00.
`O=C(Nc1cccc2nc(-c3c(NC[C@@H](O)c4ccccc4)cc[nH]c3=O)[nH]c12)c1ccco1` [Example B-19, Furan-2-carboxylic acid {2-[4-((S)-2-hydroxy-2-phenyl-ethylamino)-2-oxo-1,2-dihydro-pyridin-3-yl]-3H-benzoimidazol-4-yl}-amide] had a pIC50 of 4.82 to 6.00.
To `COc1ccc(OC(=O)Nc2cccc3nc(-c4c(NC[C@@H](O)c5ccccc5)cc[nH]c4=O)[nH]c23)cc1` [Example C-1, {2-[4-((S)-2-Hydroxy-2-phenyl-ethylamino)-2-oxo-1,2-dihydro-pyridin-3-yl]-3H-benzoimidazol-4-yl}-carbamic acid 4-methoxy-phenyl ester] belongs 4.82 to 6.00; to `COCCOC(=O)Nc1cccc2nc(-c3c(NC[C@@H](O)c4ccccc4)cc[nH]c3=O)[nH]c12` [Example C-2, {2-[4-((S)-2-Hydroxy-2-phenyl-ethylamino)-2-oxo-1,2-dihydro-pyridin-3-yl]-3H-benzoimidazol-4-yl}-carbamic acid 2-methoxy-ethyl ester], 4.82 to 6.00.
The value for `CC(C)(OC(=O)Nc1cccc2nc(-c3c(NC[C@@H](O)c4ccccc4)cc[nH]c3=O)[nH]c12)C(Cl)(Cl)Cl` [Example C-3, {2-[4-((S)-2-Hydroxy-2-phenyl-ethylamino)-2-oxo-1,2-dihydro-pyridin-3-yl]-3H-benzoimidazol-4-yl}-carbamic acid 2,2,2-trichloro-1,1-dimethyl-ethyl ester] was 4.82 to 6.00.
The value for `C=CCOC(=O)Nc1cccc2nc(-c3c(NC[C@@H](O)c4ccccc4)cc[nH]c3=O)[nH]c12` [Example C-5, {2-[4-((S)-2-Hydroxy-2-phenyl-ethylamino)-2-oxo-1,2-dihydro-pyridin-3-yl]-3H-benzoimidazol-4-yl}-carbamic acid allyl ester] was 5.56; that for `CC(C)OC(=O)Nc1cccc2nc(-c3c(NC[C@@H](O)c4ccccc4)cc[nH]c3=O)[nH]c12` [Example C-6, {2-[4-((S)-2-Hydroxy-2-phenyl-ethylamino)-2-oxo-1,2-dihydro-pyridin-3-yl]-3H-benzoimidazol-4-yl}-carbamic acid isopropyl ester] was 4.82 to 6.00.
With `COC(=O)Nc1cccc2[nH]c(-c3c(NC[C@@H](O)c4cccc(Cl)c4)cc[nH]c3=O)nc12` [Example C-7, (2-{4-[(S)-2-(3-Chloro-phenyl)-2-hydroxy-ethylamino]-2-oxo-1,2-dihydro-pyridin-3-yl}-1H-benzoimidazol-4-yl)-carbamic acid methylester], the pIC50 was 4.82 to 6.00.
For the compound `O=C(Nc1cccc(F)c1)Nc1cccc2nc(-c3c(NC[C@@H](O)c4ccccc4)cc[nH]c3=O)[nH]c12` [Example D-1, 1-(3-Fluoro-phenyl)-3-{2-[4-((S)-2-hydroxy-2-phenyl-ethylamino)-2-oxo-1,2-dihydro-pyridin-3-yl]-3H-benzoimidazol-4-yl}-urea], the pIC50 is 4.82 to 6.00.
To `COc1ccc(NC(=O)Nc2cccc3nc(-c4c(NC[C@@H](O)c5ccccc5)cc[nH]c4=O)[nH]c23)cc1` [Example D-2, 1-{2-[4-((S)-2-Hydroxy-2-phenyl-ethylamino)-2-oxo-1,2-dihydro-pyridin-3-yl]-3H-benzoimidazol-4-yl}-3-(4-methoxy-phenyl)-urea] belongs 4.82 to 6.00; to `O=C(Nc1ccc(F)cc1)Nc1cccc2nc(-c3c(NC[C@@H](O)c4ccccc4)cc[nH]c3=O)[nH]c12` [Example D-3, 1-(4-Fluoro-phenyl)-3-{2-[4-((S)-2-hydroxy-2-phenyl-ethylamino)-2-oxo-1,2-dihydro-pyridin-3-yl]-3H-benzoimidazol-4-yl}-urea], 5.44; to `O=C(Nc1ccc(OC(F)(F)F)cc1)Nc1cccc2nc(-c3c(NC[C@@H](O)c4ccccc4)cc[nH]c3=O)[nH]c12` [Example D-4, 1-{2-[4-((S)-2-Hydroxy-2-phenyl-ethylamino)-2-oxo-1,2-dihydro-pyridin-3-yl]-3H-benzoimidazol-4-yl}-3-(4-trifluoromethoxy-phenyl)-urea], 4.82 to 6.00.
As for `O=C(Nc1ccccc1)Nc1cccc2nc(-c3c(NC[C@@H](O)c4ccccc4)cc[nH]c3=O)[nH]c12` [Example D-5, 1-{2-[4-((S)-2-Hydroxy-2-phenyl-ethylamino)-2-oxo-1,2-dihydro-pyridin-3-yl]-3H-benzoimidazol-4-yl}-3-phenyl-urea], the pIC50 is 4.82 to 6.00.
The value for `COc1cccc(NC(=O)Nc2cccc3nc(-c4c(NC[C@@H](O)c5ccccc5)cc[nH]c4=O)[nH]c23)c1` [Example D-6, 1-{2-[4-((S)-2-Hydroxy-2-phenyl-ethylamino)-2-oxo-1,2-dihydro-pyridin-3-yl]-3H-benzoimidazol-4-yl}-3-(3-methoxy-phenyl)-urea] was 4.82 to 6.00; that for `O=C(NCc1ccccc1)Nc1cccc2nc(-c3c(NC[C@@H](O)c4ccccc4)cc[nH]c3=O)[nH]c12` [Example D-7, 1-Benzyl-3-{2-[4-((S)-2-hydroxy-2-phenyl-ethylamino)-2-oxo-1,2-dihydro-pyridin-3-yl]-3H-benzoimidazol-4-yl}-urea] was 4.82 to 6.00; that for `O=C(Nc1ccccc1Cl)Nc1cccc2[nH]c(-c3c(NC[C@@H](O)c4cccc(Cl)c4)cc[nH]c3=O)nc12` [Example D-8, 1-(2-Chloro-phenyl)-3-(2-{4-[(S)-2-(3-chloro-phenyl)-2-hydroxy-ethylamino]-2-oxo-1,2-dihydro-pyridin-3-yl}-1H-benzoimidazol-4-yl)-urea] was 4.82 to 6.00.
